According to patent US5488037A, “Antithrombotic agents” (Eli Lilly and Company, priority 1994, dated 1996):

Tests used:
[1] = target: human thrombin (Homo sapiens, UniProt P00734); experiment: Inhibition of the amidase activity of human thrombin (chromogenic substrate, Kass); assay type: biochemical; details: apparent association constant, mean over a range of test compound concentrations; purified human thrombin, substrate N-benzoyl-Phe-Val-Arg-p-nitroanilide, pH 7.4
Experimental: The assay is carried out by mixing 50 μl buffer (0.03M Tris, 0.15M NaCl, pH 7.4) with 25 μl of human thrombin solution (purified human thrombin, Enzyme Research Laboratories, South Bend, Ind., at 8 NIH units/ml) and 25 μl of test compound in a solvent (50% aqueous methanol (v:v)). Then 150 μl of an aqueous solution of the chromogenic substrate (at 0.25 mg/ml) are added and the rates of hydrolysis of the substrate are measured by monitoring the reactions at 405 nm for the release of p-nitroaniline. Standard curves are constructed by plotting free thrombin concentration against hydrolysis rate. The hydrolysis rates observed with test compounds are then converted to "free thrombin" values in the respective assays by use of the standard curves. The bound thrombin (bound to test compound) is calculated by subtracting the amount of free thrombin observed in each assay from the known initial amount of thrombin used in the assay. The amount of free inhibitor in each assay is calculated by subtracting the number of moles of bound thrombin from the number of moles of added inhibitor (test compound).
The Kass value is the hypothetical equilibrium constant for the reaction between thrombin and the test compound (I). [drawing 45]
Kass is calculated for a range of concentrations of test compounds and the mean value reported in units of liter per mole.

[2] = Index of bioavailability: plasma thrombin time (TT) time course after i.v. bolus and oral treatment of rats; assay type: in vivo, rat; details: dose-adjusted AUC of plasma TT, p.o. (fasted conscious rats) relative to i.v. bolus (anesthetized rats)
Excerpt: Assays are done in duplicate and averaged.
Each sample population represents alternating sequential time points.

Structure (SMILES) | Human Thrombin Inhibition Levels, Kass × 10^6 (l/mole) [1] | Index of Bioavailability, Percent Relative Activity [2] [%]
CNC(CC(=O)N1CCC[C@H]1C(=O)N[C@H](C=O)CCCNC(=N)N)c1ccccc1.Cl.Cl.O.O (stereo partly drawn) [Example 1, N-methyl-3-amino-3-phenylpropionyl-L-Prolinyl-L-Arginine Aldehyde Dihydrochloride Dihydrate] | 70 × 10^6 l/mole | 28
CNC(CC(=O)N1CCC[C@H]1C(=O)N[C@H](C=O)CCCNC(=N)N)C1CCCCC1.CNC(CC(=O)N1CCC[C@H]1C(=O)N[C@H](C=O)CCCNC(=N)N)C1CCCCC1.Cl.Cl.Cl.Cl.O (stereo partly drawn) [Example 2, N-methyl-3-amino-3-cyclohexyl propionyl-L-Pro-L-Arg aldehyde dihydrochloride hemihydrate] | 85 × 10^6 l/mole | 19
CNCC(Cc1ccccc1)C(=O)N1CCC[C@H]1C(=O)N[C@H](C=O)CCCNC(=N)N.Cl.Cl.O (stereo partly drawn) [Example 3, N-Methyl-3-amino-2-benzylpropionyl-L-Pro-L-Arg Aldehyde Dihydrochloride Monohydrate] | 12 × 10^6 l/mole | 8
Cl.Cl.N=C(N)NCCC[C@@H](C=O)NC(=O)[C@@H]1CCCN1C(=O)CN1CCCCC1.O [Example 4, 2-(2-Piperidino)acetyl-L-Pro-L-Arginine Aldehyde Dihydrochloride Monohydrate] | 1 × 10^6 l/mole | 
Cl.Cl.N=C(N)NCCC[C@@H](C=O)NC(=O)[C@@H]1CCCN1C(=O)C1CCCNC1.O (stereo partly drawn) [Example 5, 3-piperidinocarbonyl-L-Pro-L-Arginine Aldehyde Dihydrochloride Monohydrate] | 2 × 10^6 l/mole | 
Cl.Cl.N=C(N)NCCC[C@@H](C=O)NC(=O)[C@@H]1CCCN1C(=O)C1CNC2CCCCC21.O (stereo partly drawn) [Example 6, 3-perhydroindolylcarbonyl-L-Pro-L-Arginine Aldehyde Dihydrochloride Monohydrate] | 11 × 10^6 l/mole | 
CNC1CCCCC1C(=O)N1CCC[C@H]1C(=O)N[C@H](C=O)CCCNC(=N)N.Cl.Cl (stereo partly drawn) [Example 7, 2-(N-methyl)aminocyclohexyl-carbonyl-L-Pro-L-Arginine Aldehyde Dihydrochloride] | 18.4 × 10^6 l/mole | 
Cl.Cl.Cl.N=C(N)NCCC[C@@H](C=O)NC(=O)[C@@H]1CCCN1C(=O)C1CCCCC1N.O (stereo partly drawn) [Example 8, 2-aminocyclohexylcarbonyl-L-Pro-L-Arginine Aldehyde Trihydrochloride Monohydrate] | 39 × 10^6 l/mole | 15
